In paper PMC10808066, “The CRISPR effector Cam1 mediates membrane depolarization for phage defence” (Nature, 2024):
“And” between values parts separate entries of the source, which are not always exact repeats. Equal values may be shown once. Blank lines part the entries; values can stand above or below the compound they belong to.

Experiments:
[1] = target: T1, NhCam1 (cyclic oligoadenylate-activated membrane protein 1; WP_013033759) (Nitrosococcus halophilus, UniProt D5BXZ3, T97A); test: ITC; type: binding
T1 construct: gene Nhal_2839; CARF domain, residues 67–206

[2] = target: T2, NhCam1 (cyclic oligoadenylate-activated membrane protein 1; WP_013033759) (Nitrosococcus halophilus, UniProt D5BXZ3); test: ITC; […] Å X-ray crystal structure; type: binding
T2 construct: gene Nhal_2839; CARF domain, residues 67–206 (ITC; Methods: 66–206); residues 42–206 (crystal); homodimer, one ligand per dimer
T2 sequence (D5BXZ3 67-206): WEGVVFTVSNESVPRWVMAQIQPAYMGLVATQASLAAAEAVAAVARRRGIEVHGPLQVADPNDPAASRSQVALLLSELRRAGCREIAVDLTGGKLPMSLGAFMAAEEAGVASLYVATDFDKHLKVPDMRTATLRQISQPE

[3] = target: T3, NhCam1 (cyclic oligoadenylate-activated membrane protein 1; WP_013033759) (Nitrosococcus halophilus, UniProt D5BXZ3, T183A/Y180A); test: ITC; type: binding
T3 construct: gene Nhal_2839; CARF domain, residues 67–206

[4] = target: T4, NhCam1 (cyclic oligoadenylate-activated membrane protein 1; WP_013033759) (Nitrosococcus halophilus, UniProt D5BXZ3, N76A/S75A); test: ITC; type: binding
T4 construct: gene Nhal_2839; CARF domain, residues 67–206

[5] = target: T5, NhCam1 (cyclic oligoadenylate-activated membrane protein 1; WP_013033759) (Nitrosococcus halophilus, UniProt D5BXZ3, M194A/P192A/V79A); test: ITC; type: binding
T5 construct: gene Nhal_2839; CARF domain, residues 67–206

[6] = target: MGSS–His6–TEV–NhCam1 (full-length NhCam1) (Nitrosococcus halophilus Nc4); test: SEC-MALS; full-length Cam1 in DDM micelles, conjugate analysis; 25 mM Tris pH 8, 500 mM NaCl, 2 mM β-mercaptoethanol, 0.02% DDM
[7] = target: MvCam1-His (Methylomarium vadi); test: cross-linking; in vivo in S. aureus, 2 mM DSS and BMH, 1 h at room temperature, with or without aTc; Western blot of lysates with anti-His6
[8] = target: NhCam1–His (Nitrosococcus halophilus Nc4); test: as above
[9] = target: gpCam1-His (unknown Gammaproteobacterium); test: as above

Compound: Nc1ncnc2c1ncn2[C@@H]1O[C@@H]2COP(=O)(O)O[C@H]3[C@@H](O)[C@H](n4cnc5c(N)ncnc54)O[C@@H]3COP(=O)(O)O[C@H]3[C@@H](O)[C@H](n4cnc5c(N)ncnc54)O[C@@H]3COP(=O)(O)O[C@H]3[C@@H](O)[C@H](n4cnc5c(N)ncnc54)O[C@@H]3COP(=O)(O)O[C@H]2[C@H]1O [cA4]
Kd [1]: 3.74 µM
Kd [2]: 0.012 µM
Kd [3]: 4.5 µM
Kd [4]: 4 µM
Kd [5]: 2.1 µM

Compound: MGSS–His6–TEV–NhCam1 (full-length NhCam1) (natural protein)
stoichiometry N [6]: 4

Compound: gpCam1-His (natural protein)
stoichiometry N [9]: 2 and 4

Next, values leading:

stoichiometry N [7]: 2 and 4
Compound: MvCam1-His (natural protein)

stoichiometry N [8]: 2 and 4
Compound: NhCam1–His (natural protein)
